Here are results for two molecules from patent US6509319B1, “EDTA and other chelators with or without antifungal antimicrobial agents for the prevention and treatment of fungal infections” (Board of Regents, The University of Texas System, priority 1997, dated 2003).

The subject of data set [1] is Aspergillus flavus. Particulars: 0.35 mg EDTA per mL, in vitro. On the procedure:
(§1) These figures are discussed elsewhere in the Detailed Description section. A spectrophotometer was used at a frequency of 660 nm to measure the absorbency of the solution.
(§2) For molds, all inocula were started at 1×10^4 conidia/mL. For yeast and bacteria, all inocula were started at 1×10^6 cfu/mL. The medium used was Mueller-Hinton.
(§3) The concentration of chelator in these studies was 0.35 mg EDTA per mL water.

In data set [2] the test system is Aspergillus terreus. As to conditions: 0.35 mg EDTA per mL, Mueller-Hinton, in vitro. On the procedure:
as §1, §2, §3

Data set [3] has as its system Candida krusei. As to conditions: 0.35 mg EDTA per mL, in vitro. As to the method:
as §1, §2, §3

Data set [4] concerns Fusarium oxysporum. As to conditions: 0.35 mg EDTA per mL, Mueller-Hinton, in vitro. As to the method:
as §1, §2, §3

The conditions of data set [5]: cited from earlier work.

With `O=C(O)CN(CCN(CC(=O)O)CC(=O)O)CC(=O)O` [EDTA, Ethylenediamine-N,N,N′,N′,-tetraacetic acid], the “inhibitory effect on growth relative to the control population” value in data set [1] (Mueller-Hinton) is “inhibitory effect”. In addition, the “time after application from which the inhibitory effect is most clearly noticeable” value in data set [1] stood at 12 h. Also, the “inhibitory effect on growth” value in data set [2], in data set [3] (Mueller-Hinton) and in data set [4] was “inhibitory effect” each time. Also, in data set [3], the “time after contact at which the inhibitory effect is noticeable” value is “only a few hours”.

Regarding `C[C@@H]1[C@H](O)[C@@H](C)/C=C/C=C/C=C/C=C/C=C/C=C/C=C/[C@H](O[C@@H]2O[C@H](C)[C@@H](O)[C@H](N)[C@@H]2O)C[C@@H]2O[C@](O)(C[C@@H](O)C[C@@H](O)[C@H](O)CC[C@@H](O)C[C@@H](O)CC(=O)O[C@H]1C)C[C@H](O)[C@H]2C(=O)O` [Amphotericin B], in data set [5], the “solubility in aqueous solution” value is given as “not soluble”.
